pIC50: −log10 of the molar value. Where two headings read alike, the source gives them in different places. Where only a bound is given, the exact number is not on record here.

One experiment addresses CDK9/Cyclin T1 complex (Homo sapiens, UniProt P50750). The experiment is described as follows: CDK9 kinase inhibition assay (Caliper/LabChip EZ Reader).
In a further experiment the test system is MB453 cells. The experiment is described as follows: Inhibition of cell proliferation (CyQUANT Direct), MB453. Type of experiment: cell-based, human. Conditions: MB453, 72-hour.
The test system of another experiment is HCC70 cells. The experiment is described as follows: Inhibition of cell proliferation (CyQUANT Direct), HCC70. Conditions: HCC70, 72-hour. In kind it is cell-based, human.
The test system of a further experiment is COV504 cells. The experiment is described as follows: Inhibition of cell proliferation (CyQUANT Direct), COV504. Conditions: COV504, 72-hour. Type of experiment: cell-based, human.
In another experiment the target is CDK2/Cyclin E1 complex (Homo sapiens, UniProt P24941). In words: CDK2 kinase inhibition assay (Caliper/LabChip EZ Reader).
Experiment [1] concerns the target CDK7/Cyclin H/MAT1 complex (Homo sapiens, UniProt P50613). The experiment is described as follows: CDK7 kinase inhibition assay (Caliper/LabChip EZ Reader).
A further experiment deals with COV318 cells. The experiment is described as follows: Inhibition of cell proliferation (CyQUANT Direct), COV318. In kind it is cell-based, human. To be noted: COV318, 72-hour.
The target in experiment [2] is CDK12 (aa686-1082)/Cyclin K complex (Homo sapiens, UniProt Q9NYV4). The experiment is described as follows: CDK12 kinase inhibition assay (Caliper/LabChip EZ Reader).
CDK12 (aa686-1082)/Cyclin K complex, sequence (Q9NYV4 686-1082): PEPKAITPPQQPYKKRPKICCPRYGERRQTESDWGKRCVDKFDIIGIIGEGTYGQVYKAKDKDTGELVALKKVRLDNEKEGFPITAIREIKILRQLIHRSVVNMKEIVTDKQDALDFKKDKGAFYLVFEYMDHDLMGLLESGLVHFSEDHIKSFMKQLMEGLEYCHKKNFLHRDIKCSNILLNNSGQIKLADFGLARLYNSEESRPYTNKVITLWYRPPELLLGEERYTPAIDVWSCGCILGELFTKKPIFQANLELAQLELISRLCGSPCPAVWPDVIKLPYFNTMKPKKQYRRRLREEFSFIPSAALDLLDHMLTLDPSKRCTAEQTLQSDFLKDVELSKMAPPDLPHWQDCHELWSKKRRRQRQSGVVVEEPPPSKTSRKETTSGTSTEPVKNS
CDK12 (aa686-1082)/Cyclin K complex, sequence (O75909 whole entry partner, the tested form may be a part): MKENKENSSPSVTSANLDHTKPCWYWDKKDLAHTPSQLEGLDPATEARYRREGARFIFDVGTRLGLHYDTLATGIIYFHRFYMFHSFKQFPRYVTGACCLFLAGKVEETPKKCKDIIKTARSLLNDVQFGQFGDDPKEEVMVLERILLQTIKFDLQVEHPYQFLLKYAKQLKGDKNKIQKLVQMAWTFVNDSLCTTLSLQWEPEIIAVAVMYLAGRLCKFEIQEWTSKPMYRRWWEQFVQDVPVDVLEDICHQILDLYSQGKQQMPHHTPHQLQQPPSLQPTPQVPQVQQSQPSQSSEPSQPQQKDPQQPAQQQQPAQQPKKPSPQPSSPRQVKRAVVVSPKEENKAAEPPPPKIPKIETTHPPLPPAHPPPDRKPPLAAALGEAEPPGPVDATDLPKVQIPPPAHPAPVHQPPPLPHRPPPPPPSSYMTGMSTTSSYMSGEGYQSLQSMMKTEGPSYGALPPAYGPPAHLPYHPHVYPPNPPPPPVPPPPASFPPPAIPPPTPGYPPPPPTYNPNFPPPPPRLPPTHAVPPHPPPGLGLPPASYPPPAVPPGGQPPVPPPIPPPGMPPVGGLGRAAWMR
Experimental: (§1) Compounds described herein were assayed for inhibition of CDK7, CDK9, CDK12, and CDK2 activity at Biortus Biosciences (Jiangyin, Jiangsu Province, P.R. of China) using kinase assays for each CDK developed with a Caliper/LabChip EZ Reader (Perkin Elmer, Waltham, Mass.).
(§2) Furthermore, the CDK9 inhibition assay used CDK9/Cyclin T1 complex (8 nM) and “5-FAM-CDK9tide” peptide substrate (2 μM, synthesized fluorophore-labeled peptide with the following sequence: 5-FAM-GSRTPMY-NH2 (SEQ ID NO:2) where 5-FAM is defined above and NH2 signifies a C-terminal amide) with 10 mM MgCl2 in the buffer composition listed above. The CDK12 inhibition assay used CDK12 (aa686-1082)/Cyclin K complex (50 nM) and “5-FAM-CDK9tide” (2 μM) as defined above, with 2 mM MgCl2 in the buffer composition above. Additionally, the CDK2 inhibition assay used CDK2/Cyclin E1 complex (0.5 nM) and “5-FAM-CDK7tide” (2 μM; defined above) with 2 mM MgCl2 in the buffer composition above.
(§3) The incubation period at 27° C. for each CDK inhibition assay was chosen such that the fraction of phosphorylated peptide product produced in each assay, relative to the total peptide concentration, was approximately 20% (±5%) for the uninhibited kinase (35 min. for CDK7, 35 min. for CDK2, 3 hr. for CDK12, 15 min. for CDK9).

CDK9/Cyclin T1 complex, sequence (P50750 whole entry): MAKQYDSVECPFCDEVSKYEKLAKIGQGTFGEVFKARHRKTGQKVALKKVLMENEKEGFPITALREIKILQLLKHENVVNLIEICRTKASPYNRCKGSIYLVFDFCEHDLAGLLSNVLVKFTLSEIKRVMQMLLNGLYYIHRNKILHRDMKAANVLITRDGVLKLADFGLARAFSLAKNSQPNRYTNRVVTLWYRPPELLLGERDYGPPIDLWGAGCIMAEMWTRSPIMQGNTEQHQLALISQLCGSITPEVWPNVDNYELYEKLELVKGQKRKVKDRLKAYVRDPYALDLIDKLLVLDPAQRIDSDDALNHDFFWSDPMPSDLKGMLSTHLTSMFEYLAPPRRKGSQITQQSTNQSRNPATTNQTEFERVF
CDK9/Cyclin T1 complex, sequence (O60563 whole entry partner): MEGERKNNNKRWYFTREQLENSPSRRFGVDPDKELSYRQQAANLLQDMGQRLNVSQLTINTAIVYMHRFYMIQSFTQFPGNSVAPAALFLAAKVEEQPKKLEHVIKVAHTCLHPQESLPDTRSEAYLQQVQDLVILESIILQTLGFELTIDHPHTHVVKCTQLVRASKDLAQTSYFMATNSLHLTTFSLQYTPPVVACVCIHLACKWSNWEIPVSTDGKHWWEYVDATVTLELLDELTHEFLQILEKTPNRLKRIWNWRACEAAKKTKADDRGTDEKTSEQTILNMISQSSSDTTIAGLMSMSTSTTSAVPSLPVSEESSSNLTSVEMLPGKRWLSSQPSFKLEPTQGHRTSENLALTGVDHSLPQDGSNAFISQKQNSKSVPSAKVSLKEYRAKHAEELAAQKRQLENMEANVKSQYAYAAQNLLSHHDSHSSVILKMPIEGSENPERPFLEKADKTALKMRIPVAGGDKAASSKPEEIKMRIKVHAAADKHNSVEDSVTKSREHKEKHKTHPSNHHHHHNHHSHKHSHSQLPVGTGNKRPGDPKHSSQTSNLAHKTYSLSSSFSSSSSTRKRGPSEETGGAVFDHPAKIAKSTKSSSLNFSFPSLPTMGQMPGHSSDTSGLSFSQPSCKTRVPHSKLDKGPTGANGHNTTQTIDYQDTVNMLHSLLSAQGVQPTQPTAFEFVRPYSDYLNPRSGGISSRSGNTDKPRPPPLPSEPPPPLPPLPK
CDK7/Cyclin H/MAT1 complex, sequence (P50613 whole entry): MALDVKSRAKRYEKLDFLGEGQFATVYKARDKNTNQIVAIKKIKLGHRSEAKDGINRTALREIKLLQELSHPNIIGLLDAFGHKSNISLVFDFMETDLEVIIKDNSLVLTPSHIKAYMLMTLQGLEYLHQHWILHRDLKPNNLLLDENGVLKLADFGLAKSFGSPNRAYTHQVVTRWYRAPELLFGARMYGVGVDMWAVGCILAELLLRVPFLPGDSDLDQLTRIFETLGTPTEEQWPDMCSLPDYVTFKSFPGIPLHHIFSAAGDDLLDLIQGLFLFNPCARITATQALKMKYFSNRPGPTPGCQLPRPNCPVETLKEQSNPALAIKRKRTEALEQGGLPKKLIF
CDK7/Cyclin H/MAT1 complex, sequence (P51946 whole entry partner): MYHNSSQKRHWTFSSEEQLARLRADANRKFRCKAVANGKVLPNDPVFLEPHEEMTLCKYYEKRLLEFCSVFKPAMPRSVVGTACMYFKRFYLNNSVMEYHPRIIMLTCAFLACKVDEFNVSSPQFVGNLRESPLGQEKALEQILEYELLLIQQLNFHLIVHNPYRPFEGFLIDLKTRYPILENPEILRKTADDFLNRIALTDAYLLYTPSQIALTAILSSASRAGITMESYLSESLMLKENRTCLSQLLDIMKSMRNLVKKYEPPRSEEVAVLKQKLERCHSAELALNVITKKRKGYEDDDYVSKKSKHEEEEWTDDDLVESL
CDK7/Cyclin H/MAT1 complex, sequence (P51948 whole entry partner): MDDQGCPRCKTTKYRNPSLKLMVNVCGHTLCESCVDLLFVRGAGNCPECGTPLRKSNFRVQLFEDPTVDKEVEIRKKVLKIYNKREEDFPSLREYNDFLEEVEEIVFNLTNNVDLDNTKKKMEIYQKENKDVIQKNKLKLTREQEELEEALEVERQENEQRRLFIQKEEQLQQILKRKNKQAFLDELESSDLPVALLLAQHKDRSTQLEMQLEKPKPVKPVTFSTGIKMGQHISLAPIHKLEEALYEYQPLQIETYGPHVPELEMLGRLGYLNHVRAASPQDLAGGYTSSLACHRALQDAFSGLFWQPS
Experimental for CDK2/Cyclin E1 complex: as §1, §2, §3
Experimental for CDK9/Cyclin T1 complex: as §1, §2, §3

By pIC50 is commonly meant the negative decadic logarithm of the IC50, by convention in mol/L. As for `CO[C@H]1CNC[C@@H](Nc2ncc(C(F)(F)F)c(-c3c[nH]c4cc(-c5c(C)noc5C)ccc34)n2)C1` [Compound 131], the pIC50 at CDK9/Cyclin T1 complex was less than 6.30; with MB453 cells (Homo sapiens), greater than 7.00; with HCC70 cells (Homo sapiens), 6.30 to 7.00; in the experiment on COV504 cells (Homo sapiens), greater than 7.00; on CDK2/Cyclin E1 complex, less than 6.30; in experiment [1], greater than 7.52. For the same compound, the pIC50 with COV318 cells (Homo sapiens) is 6.30 to 7.00; in experiment [2], less than 6.30.
`Cc1nnnn1-c1ccc2c(-c3nc(N[C@H]4CCCNC4)ncc3C(F)(F)F)c[nH]c2n1` [Compound 141, 4-[6-(5-methyltetrazol-1-yl)-1H-pyrrolo[2,3-b]pyridin-3-yl]-N-[(3S)-3-piperidyl]-5-(trifluoromethyl)pyrimidin-2-amine]: the pIC50 is less than 6.30 at CDK9/Cyclin T1 complex; 6.30 to 7.00 with MB453 cells (Homo sapiens); 6.30 to 7.00 in the experiment with HCC70 cells (Homo sapiens); greater than 7.00 in the experiment on COV504 cells (Homo sapiens); less than 6.30 against CDK2/Cyclin E1 complex; greater than 7.52 in experiment [1]. In addition, the figures for the pIC50 (in the experiment on COV318 cells (Homo sapiens); in experiment [2]) were 6.30 to 7.00 and less than 6.30, respectively.
With `Cc1noc(C)c1-c1ccc2c(-c3nc(N[C@@H]4CNC[C@H](C(=O)N(C)C)C4)ncc3C(F)(F)F)c[nH]c2n1` [Compound 119, (3R,5S)-5-[[4-[6-(3,5-dimethylisoxazol-4-yl)-1H-pyrrolo[2,3-b]pyridin-3-yl]-5-(trifluoromethyl)pyrimidin-2-yl]amino]-N,N-dimethyl-piperidine-3-carboxamide], the pIC50 on CDK9/Cyclin T1 complex is less than 6.30; in the experiment on MB453 cells (Homo sapiens), greater than 7.00; with HCC70 cells (Homo sapiens) it was greater than 7.00; with COV504 cells (Homo sapiens) it was greater than 7.00; on CDK2/Cyclin E1 complex, less than 6.30; in experiment [1], greater than 7.52. Further, the pIC50 in the experiment on COV318 cells (Homo sapiens) was less than 6.00; in experiment [2] it was less than 6.30.
As for `CO[C@@H]1CCNC[C@H]1Nc1ncc(C(F)(F)F)c(-c2c[nH]c3nc(-c4c(C)noc4C)ccc23)n1` (single isomer, unassigned) [Compound 117], the pIC50 against CDK9/Cyclin T1 complex was less than 6.30; in the experiment on MB453 cells (Homo sapiens) it was greater than 7.00; in the experiment with HCC70 cells (Homo sapiens), 6.30 to 7.00; with COV504 cells (Homo sapiens) it was greater than 7.00; at CDK2/Cyclin E1 complex, less than 6.30; in experiment [1], greater than 7.52. Further, the pIC50 with COV318 cells (Homo sapiens) was 6.00 to 6.30; in experiment [2] it was less than 6.30.
Consider `CC1(C)CNC[C@@H](Nc2ncc(C(F)(F)F)c(-c3c[nH]c4nc(-c5nccs5)ccc34)n2)C1` [Compound 137, N-[(3S)-5,5-dimethyl-3-piperidyl]-4-(6-thiazol-2-yl-1H-pyrrolo[2,3-b]pyridin-3-yl)-5-(trifluoromethyl)pyrimidin-2-amine], for which the pIC50 is less than 6.30 on CDK9/Cyclin T1 complex; greater than 7.00 in the experiment on MB453 cells (Homo sapiens); greater than 7.00 in the experiment with HCC70 cells (Homo sapiens); greater than 7.00 in the experiment with COV504 cells (Homo sapiens); less than 6.30 against CDK2/Cyclin E1 complex; greater than 7.52 in experiment [1]. The results for the pIC50 (with COV318 cells (Homo sapiens); in experiment [2]) were greater than 7.00 and less than 6.30, respectively.
Turning to `Cc1noc(C)c1-c1ccc2c(-c3nc(N[C@@H]4CNC[C@H](O)C4)ncc3C(F)(F)F)n[nH]c2n1` [Compound 146, (3R, 5S)-5-[[4-[6-(3,5-dimethylisoxazol-4-yl)-1H-pyrazolo[3,4-b]pyridin-3-yl]-5-(trifluoromethyl)pyrimidin-2-yl]amino]piperidin-3-ol], the pIC50 against CDK9/Cyclin T1 complex is less than 6.30; in the experiment on MB453 cells (Homo sapiens), 6.30 to 7.00; with HCC70 cells (Homo sapiens) it was 6.00 to 6.30; in the experiment with COV504 cells (Homo sapiens), 6.30 to 7.00; at CDK2/Cyclin E1 complex it was less than 6.30; in experiment [1] it was greater than 7.52. The figures for the negative logarithm of the IC50 (pIC50) (with COV318 cells (Homo sapiens); in experiment [2]) were less than 6.00 and less than 6.30, respectively.
Take `FC(F)(F)c1cnc(N[C@H]2CCCNC2)nc1-c1n[nH]c2cc(-c3nccs3)ccc12` [Compound 103]: the pIC50 is less than 6.30 against CDK9/Cyclin T1 complex; greater than 7.00 in the experiment with MB453 cells (Homo sapiens); 6.30 to 7.00 with HCC70 cells (Homo sapiens); greater than 7.00 in the experiment on COV504 cells (Homo sapiens); less than 6.30 on CDK2/Cyclin E1 complex; greater than 7.52 in experiment [1]. In addition, the pIC50 (with COV318 cells (Homo sapiens); in experiment [2]) was 6.30 to 7.00 in each case.
With `Cc1nc(-c2ccc3c(-c4nc(N[C@H]5CCCNC5)ncc4C(F)(F)F)c[nH]c3c2)no1` [Compound 129, 4-[6-(5-methyl-1,2,4-oxadiazol-3-yl)-1H-indol-3-yl]-N-[(3S)-3-piperidyl]-5-(trifluoromethyl)pyrimidin-2-amine], the pIC50 at CDK9/Cyclin T1 complex was less than 6.30; with MB453 cells (Homo sapiens), greater than 7.00; in the experiment with HCC70 cells (Homo sapiens) it was greater than 7.00; in the experiment on COV504 cells (Homo sapiens), greater than 7.00; on CDK2/Cyclin E1 complex it was less than 6.30; in experiment [1], greater than 7.52. Further, the pIC50 with COV318 cells (Homo sapiens) was greater than 7.00; in experiment [2], less than 6.30.
With `Cc1nnc(-c2ccc3c(-c4nc(N[C@@H]5CC[C@@H](C)NC5)ncc4C(F)(F)F)c[nH]c3n2)s1` [Compound 158, N-[(3R,6R)-6-methyl-3-piperidyl]-4-[6-(5-methyl-1,3,4-thiadiazol-2-yl)-1H-pyrrolo[2,3-b]pyridin-3-yl]-5-(trifluoromethyl)pyrimidin-2-amine], the pIC50 on CDK9/Cyclin T1 complex was less than 6.30; in the experiment with MB453 cells (Homo sapiens), greater than 7.00; in the experiment with HCC70 cells (Homo sapiens), greater than 7.00; in the experiment on COV504 cells (Homo sapiens), greater than 7.00; on CDK2/Cyclin E1 complex it was less than 6.30; in experiment [1], greater than 7.52. Besides, the negative-log IC50 (pIC50) in the experiment on COV318 cells (Homo sapiens) was 6.30 to 7.00; in experiment [2], less than 6.30.
For the compound `CNC(=O)[C@H]1CNC[C@@H](Nc2ncc(C(F)(F)F)c(-c3c[nH]c4cc(-c5c(C)noc5C)ccc34)n2)C1` [Compound 113], the pIC50 on CDK9/Cyclin T1 complex is less than 6.30; in the experiment on MB453 cells (Homo sapiens) it was 6.30 to 7.00; in the experiment on HCC70 cells (Homo sapiens), 6.00 to 6.30; in the experiment on COV504 cells (Homo sapiens) it was 6.00 to 6.30; against CDK2/Cyclin E1 complex it was less than 6.30; in experiment [1], greater than 7.52. Further, the negative logarithm of the IC50 (pIC50) in the experiment on COV318 cells (Homo sapiens) was less than 6.00; in experiment [2], less than 6.30.
As to “(3S)-tert-butyl 3-((4-(6-(3,5-dimethylisoxazol-4-yl)-5-fluoro-1H-pyrrolo[2,3-b]pyridin-3-yl)-5-(trifluoromethyl)pyrimidin-2-yl)amino)piperidine-1-carboxylate [Compound 138]”, the pIC50 was less than 6.30 on CDK9/Cyclin T1 complex (read-out: CDK9 IC50, CDK9/Cyclin T1 8 nM, ATP 2 mM, 15 min at 27° C.); greater than 7.00 with MB453 cells; greater than 7.00 in the experiment on HCC70 cells; greater than 7.00 with COV504 cells; less than 6.30 at CDK2/Cyclin E1 complex (read-out: CDK2 IC50, CDK2/Cyclin E1 0.5 nM, ATP 2 mM, 35 min at 27° C.); greater than 7.52 in experiment [1] (read-out: CDK7 IC50, CDK7/Cyclin H/MAT1 6 nM, ATP 2 mM, 35 min at 27° C.). Further, the pIC50 with COV318 cells was greater than 7.00; in experiment [2] (read-out: CDK12 IC50, CDK12 (aa686-1082)/Cyclin K 50 nM, ATP 2 mM, 3 hr at 27° C.), less than 6.30.
In the case of `Cc1noc(C)c1-c1ccc2c(-c3nc(N[C@@H]4CNC[C@H](C(=O)N(C)C)C4)ncc3C(F)(F)F)c[nH]c2c1` [Compound 112, (3R,5S)-5-[[4-[6-(3,5-dimethylisoxazol-4-yl)-1H-indol-3-yl]-5-(trifluoromethyl)pyrimidin-2-yl]-amino]-N, N-dimethyl-piperidine-3-carboxamide], the pIC50 is less than 6.30 at CDK9/Cyclin T1 complex; 6.30 to 7.00 in the experiment with MB453 cells (Homo sapiens); 6.30 to 7.00 with HCC70 cells (Homo sapiens); 6.30 to 7.00 with COV504 cells (Homo sapiens); less than 6.30 against CDK2/Cyclin E1 complex; greater than 7.52 in experiment [1]. Moreover, the pIC50 in the experiment on COV318 cells (Homo sapiens) is less than 6.00; in experiment [2], less than 6.30.
Turning to `Cc1noc(C)c1-c1ccc2c(-c3nc(N[C@@H]4CNCC(C)(C)C4)ncc3C(F)(F)F)c[nH]c2c1` [Compound 102], the pIC50 against CDK9/Cyclin T1 complex was less than 6.30; in the experiment with MB453 cells (Homo sapiens), greater than 7.00; in the experiment with HCC70 cells (Homo sapiens) it was greater than 7.00; in the experiment with COV504 cells (Homo sapiens), greater than 7.00; against CDK2/Cyclin E1 complex it was less than 6.30; in experiment [1] it was greater than 7.52. In addition, the pIC50 is 6.30 to 7.00 in the experiment on COV318 cells (Homo sapiens) and less than 6.30 in experiment [2].

The values above are taken from patent US11311542B2, “Inhibitors of cyclin dependent kinase 7 (CDK7)” (Syros Pharmaceuticals, Inc., priority 2018, dated 2022).
